Assay results taken from article PMC11289455 (Scientific Reports, 2024).
Like-named read-outs stand apart in the source and are kept apart here.

How the values were obtained:
[1] = molecular target: T1, V1a (vasopressin receptor 1A) (Homo sapiens, UniProt P37288); assay: SafetyScreen44: V1a; assay type: binding
T1 construct: purchased Eurofins Cerep SafetyScreen44

[2] = molecular target: T2, α1A (alpha-1A adrenergic receptor) (Homo sapiens, UniProt P35348); assay: SafetyScreen44: α1A; assay type: binding
T2 construct: purchased Eurofins Cerep SafetyScreen44
T2 sequence (P35348 1-466): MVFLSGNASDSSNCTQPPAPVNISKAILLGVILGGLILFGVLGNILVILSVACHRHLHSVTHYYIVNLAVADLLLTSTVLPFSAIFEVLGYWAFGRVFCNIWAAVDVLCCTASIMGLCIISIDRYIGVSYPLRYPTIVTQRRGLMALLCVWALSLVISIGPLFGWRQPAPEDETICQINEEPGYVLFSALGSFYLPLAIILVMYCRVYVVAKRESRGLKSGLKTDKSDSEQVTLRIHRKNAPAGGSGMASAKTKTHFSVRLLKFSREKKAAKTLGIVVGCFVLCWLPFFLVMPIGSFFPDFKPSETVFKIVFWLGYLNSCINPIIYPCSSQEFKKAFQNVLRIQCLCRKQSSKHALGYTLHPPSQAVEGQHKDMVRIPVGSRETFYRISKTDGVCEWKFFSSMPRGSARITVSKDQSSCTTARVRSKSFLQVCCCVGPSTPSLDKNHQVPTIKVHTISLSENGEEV

[3] = molecular target: T3, M2 (muscarinic acetylcholine receptor M2) (Homo sapiens, UniProt P08172); assay: SafetyScreen44: M2; assay type: binding
T3 construct: purchased Eurofins Cerep SafetyScreen44
T3 sequence (P08172 1-466): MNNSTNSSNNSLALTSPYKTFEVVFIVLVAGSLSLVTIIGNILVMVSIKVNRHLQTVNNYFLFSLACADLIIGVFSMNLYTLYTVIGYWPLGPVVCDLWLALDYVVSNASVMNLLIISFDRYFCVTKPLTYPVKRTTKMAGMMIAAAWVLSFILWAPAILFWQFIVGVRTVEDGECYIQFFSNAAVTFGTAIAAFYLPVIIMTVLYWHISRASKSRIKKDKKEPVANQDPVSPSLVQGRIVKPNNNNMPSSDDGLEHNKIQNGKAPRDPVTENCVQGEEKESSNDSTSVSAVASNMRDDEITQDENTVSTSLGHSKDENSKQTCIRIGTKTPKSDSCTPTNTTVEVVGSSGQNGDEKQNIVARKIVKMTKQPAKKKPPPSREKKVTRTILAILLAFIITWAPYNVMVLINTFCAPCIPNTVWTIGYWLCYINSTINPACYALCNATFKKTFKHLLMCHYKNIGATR

[4] = molecular target: T4, β2 (beta-2 adrenergic receptor) (Homo sapiens, UniProt P07550); assay: SafetyScreen44: β2; assay type: binding
T4 construct: purchased Eurofins Cerep SafetyScreen44

healthy participants = assay: First-in-human study, safety and tolerability; assay type: in vivo
Excerpt: The purpose of the first-in-human, single-center, randomized, double-blind, placebo-controlled study was to determine the safety, tolerability, pharmacokinetics, and pharmacodynamics of JNJ-77242113 in healthy participants. […] AEs were coded using the Medical Dictionary for Regulatory Activities (Version 23.1).

COX2 = molecular target: T5, COX2 (Homo sapiens, UniProt P35354); assay: SafetyScreen44: COX2; assay type: biochemical
T5 construct: purchased Eurofins Cerep SafetyScreen44
T5 sequence (P35354 18-604): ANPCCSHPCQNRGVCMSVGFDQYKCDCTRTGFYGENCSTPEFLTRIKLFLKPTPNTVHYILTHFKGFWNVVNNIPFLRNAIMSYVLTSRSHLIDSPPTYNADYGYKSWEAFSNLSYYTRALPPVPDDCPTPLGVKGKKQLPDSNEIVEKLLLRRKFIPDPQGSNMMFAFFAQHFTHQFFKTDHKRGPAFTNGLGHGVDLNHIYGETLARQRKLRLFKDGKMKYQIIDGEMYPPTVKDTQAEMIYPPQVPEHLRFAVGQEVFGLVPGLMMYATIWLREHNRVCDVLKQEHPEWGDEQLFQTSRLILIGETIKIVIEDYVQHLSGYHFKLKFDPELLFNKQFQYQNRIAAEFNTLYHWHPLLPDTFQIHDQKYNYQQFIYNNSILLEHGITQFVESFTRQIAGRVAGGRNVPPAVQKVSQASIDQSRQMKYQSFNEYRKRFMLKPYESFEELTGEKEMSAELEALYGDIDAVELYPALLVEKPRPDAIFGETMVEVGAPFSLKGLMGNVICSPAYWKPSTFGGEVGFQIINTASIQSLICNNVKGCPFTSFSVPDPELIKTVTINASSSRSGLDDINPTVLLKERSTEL

[5] = Nonclinical tissue distribution in monkeys; assay type: in vivo, monkey; conditions: variety of tissues (e.g. colon, ileum, and skin), nonclinical data
[6] = molecular target: T6, β1 (beta-1 adrenergic receptor) (Homo sapiens, UniProt P08588); assay: SafetyScreen44: β1; assay type: binding
T6 construct: purchased Eurofins Cerep SafetyScreen44

[7] = molecular target: T7, 5-HT2A (serotonin 2A receptor) (Homo sapiens, UniProt P28223); assay: SafetyScreen44: 5-HT2A; assay type: binding
T7 construct: purchased Eurofins Cerep SafetyScreen44
T7 sequence (P28223 whole entry): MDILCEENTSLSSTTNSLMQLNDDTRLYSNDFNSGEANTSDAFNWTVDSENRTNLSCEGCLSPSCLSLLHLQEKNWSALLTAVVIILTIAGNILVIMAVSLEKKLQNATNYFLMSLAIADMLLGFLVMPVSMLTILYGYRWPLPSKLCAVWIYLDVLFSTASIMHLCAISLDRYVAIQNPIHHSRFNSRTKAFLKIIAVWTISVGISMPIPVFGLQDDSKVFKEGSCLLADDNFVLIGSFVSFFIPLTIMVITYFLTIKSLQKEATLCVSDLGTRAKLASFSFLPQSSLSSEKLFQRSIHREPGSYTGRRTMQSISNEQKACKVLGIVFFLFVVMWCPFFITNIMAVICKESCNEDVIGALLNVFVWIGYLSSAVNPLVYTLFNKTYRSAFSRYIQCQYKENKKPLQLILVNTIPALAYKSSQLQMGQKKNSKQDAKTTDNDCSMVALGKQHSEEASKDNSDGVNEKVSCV

T4 sequence (P07550 whole entry): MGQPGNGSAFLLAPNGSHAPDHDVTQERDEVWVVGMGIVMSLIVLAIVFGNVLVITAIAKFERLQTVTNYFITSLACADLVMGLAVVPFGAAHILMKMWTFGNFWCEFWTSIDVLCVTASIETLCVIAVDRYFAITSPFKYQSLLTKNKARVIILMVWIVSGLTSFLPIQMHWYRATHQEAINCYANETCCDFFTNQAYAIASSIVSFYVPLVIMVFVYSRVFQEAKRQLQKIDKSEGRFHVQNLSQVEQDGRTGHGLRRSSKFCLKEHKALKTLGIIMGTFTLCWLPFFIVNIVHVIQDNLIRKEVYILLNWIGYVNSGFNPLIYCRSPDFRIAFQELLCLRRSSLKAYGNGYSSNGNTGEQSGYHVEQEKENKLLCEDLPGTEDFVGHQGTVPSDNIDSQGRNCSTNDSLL
T1 sequence (P37288 whole entry): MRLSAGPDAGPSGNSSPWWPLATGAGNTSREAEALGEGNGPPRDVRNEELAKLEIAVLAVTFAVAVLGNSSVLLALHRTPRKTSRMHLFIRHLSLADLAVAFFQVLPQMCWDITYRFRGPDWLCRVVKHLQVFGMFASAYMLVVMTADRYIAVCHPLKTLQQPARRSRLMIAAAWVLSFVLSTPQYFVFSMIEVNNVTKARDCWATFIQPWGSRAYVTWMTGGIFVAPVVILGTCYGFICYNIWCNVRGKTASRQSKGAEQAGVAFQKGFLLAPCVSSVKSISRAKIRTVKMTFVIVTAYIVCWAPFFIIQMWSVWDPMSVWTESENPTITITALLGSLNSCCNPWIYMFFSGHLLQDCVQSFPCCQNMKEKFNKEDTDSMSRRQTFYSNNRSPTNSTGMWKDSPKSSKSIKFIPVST
T6 sequence (P08588 whole entry): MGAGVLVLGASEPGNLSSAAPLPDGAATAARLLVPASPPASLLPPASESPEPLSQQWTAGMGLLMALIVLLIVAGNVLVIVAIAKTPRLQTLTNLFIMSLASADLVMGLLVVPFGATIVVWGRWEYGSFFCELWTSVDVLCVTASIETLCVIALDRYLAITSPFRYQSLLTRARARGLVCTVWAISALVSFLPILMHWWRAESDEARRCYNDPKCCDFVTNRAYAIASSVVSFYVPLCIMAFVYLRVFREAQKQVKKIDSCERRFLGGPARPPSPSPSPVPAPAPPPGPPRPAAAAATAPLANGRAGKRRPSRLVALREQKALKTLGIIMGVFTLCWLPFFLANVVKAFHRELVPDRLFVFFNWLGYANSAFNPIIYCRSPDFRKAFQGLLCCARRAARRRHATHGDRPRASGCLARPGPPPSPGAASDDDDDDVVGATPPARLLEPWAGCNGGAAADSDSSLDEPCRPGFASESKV

## CC(=O)NCCCC[C@@H]1NC(=O)[C@H](Cc2c[nH]c3c(C)cccc23)NC(=O)[C@H]([C@@H](C)O)NC(=O)[C@H](CC(N)=O)NC(=O)[C@@H](NC(C)=O)C(C)(C)SSC(C)(C)[C@@H](C(=O)N[C@@H](Cc2ccc(OCCN)cc2)C(=O)N[C@@H](Cc2ccc3ccccc3c2)C(=O)NC2(C(=O)N[C@@H](CCC(=O)O)C(=O)N[C@@H](CC(N)=O)C(=O)N[C@@H](Cc3cccnc3)C(=O)N(C)CC(N)=O)CCOCC2)NC1=O [JNJ-77242113, S^3,1,S^3,6-cyclo[N-acetyl-3-sulfanyl-L-valyl-L-asparaginyl-L-threonyl-7-methyl-L-tryptophyl-N^6-acetyl-L-lysyl-3-sulfanyl-L-valyl-O-(2-aminoethyl)-L-tyrosyl-3-(naphthalen-2-yl)-L-alanyl-4-aminooxan-4-carbonyl-L-α-glutamyl-L-asparaginyl-3-(pyridin-3-yl)-L-alanyl-N^2-methylglycinamide]]
[1]; 1st run, read-out: Percent inhibition of control ligand binding, V1a, 1st run
  inhibition at 10 µM: 4.8%
[1]; 2nd run, read-out: Percent inhibition of control ligand binding, V1a, 2nd run
  inhibition at 10 µM: 6.4%
[1]; mean of 2 runs, read-out: Percent inhibition of control ligand binding, V1a, Mean
  inhibition at 10 µM: 5.6%
[2]; 1st run, read-out: Percent inhibition of control ligand binding, α1A, 1st run
  inhibition at 10 µM: -4.6%
[2]; 2nd run, read-out: Percent inhibition of control ligand binding, α1A, 2nd run
  inhibition at 10 µM: 5.5%
[2]; mean of 2 runs, read-out: Percent inhibition of control ligand binding, α1A, Mean
  inhibition at 10 µM: 0.5%
[3]; 1st run, read-out: Percent inhibition of control ligand binding, M2, 1st run
  inhibition at 10 µM: 0.3%
[3]; 2nd run, read-out: Percent inhibition of control ligand binding, M2, 2nd run
  inhibition at 10 µM: 2%
[3]; mean of 2 runs, read-out: Percent inhibition of control ligand binding, M2, Mean
  inhibition at 10 µM: 1.2%
[4]; 1st run, read-out: Percent inhibition of control ligand binding, β2, 1st run
  inhibition at 10 µM: -8.2%
[4]; 2nd run, read-out: Percent inhibition of control ligand binding, β2, 2nd run
  inhibition at 10 µM: -0.6%
[4]; mean of 2 runs, read-out: Percent inhibition of control ligand binding, β2, Mean
  inhibition at 10 µM: -4.4%
Healthy participants; all cohorts
  Serious AEs or deaths related to JNJ-77242113: No serious AEs or deaths
  Severity of adverse events: mild or moderate
Healthy participants; healthy participants, multiple ascending dose
  Headache, participants, Part 2: 13.6%
Healthy participants; healthy participants, multiple ascending dose, JNJ-77242113 groups
  Frequency of treatment-related AEs, Part 2: 46%
Healthy participants; healthy participants, single ascending dose
  Headache, participants, Part 1: 10.3%
Healthy participants; healthy participants, single ascending dose, JNJ-77242113 groups
  Frequency of treatment-related AEs, Part 1: 31%
COX2; 1st run, read-out: Percent inhibition of control ligand binding, COX2, 1st run
  inhibition at 10 µM: 7.8%
COX2; 2nd run, read-out: Percent inhibition of control ligand binding, COX2, 2nd run
  inhibition at 10 µM: -0.9%
COX2; mean of 2 runs, read-out: Percent inhibition of control ligand binding, COX2, Mean
  inhibition at 10 µM: 3.4%
[5]
  Tissue distribution (in words): distributed freely
[6]; 1st run, read-out: Percent inhibition of control ligand binding, β1, 1st run
  inhibition at 10 µM: -5.1%
[6]; 2nd run, read-out: Percent inhibition of control ligand binding, β1, 2nd run
  inhibition at 10 µM: 7.7%
[6]; mean of 2 runs, read-out: Percent inhibition of control ligand binding, β1, Mean
  inhibition at 10 µM: 1.3%
[7]; 1st run, read-out: Percent inhibition of control ligand binding, 5-HT2A, 1st run
  inhibition at 10 µM: 7%
[7]; 2nd run, read-out: Percent inhibition of control ligand binding, 5-HT2A, 2nd run
  inhibition at 10 µM: 3.3%
[7]; mean of 2 runs, read-out: Percent inhibition of control ligand binding, 5-HT2A, Mean
  inhibition at 10 µM: 5.1%
